# Results from patent publication US20250032651A1, “[177LU] LUTETIUM-PSMA I&T COMPOSITION AND DOSIMETRY, KIT, METHOD OF MAKING, AND METHOD OF USING THEREOF” (Curium US LLC, priority 2022, published 2025).
# Where “and” joins values, the source holds several entries; their conditions need not be identical. Identical values can stand only once.
# Assay: Plasma PK: gamma-counted plasma radioactivity, bi-exponential fit
# Type: in vivo, human
# Protocol: Additionally, for PK assessment, whole blood samples were collected at six timepoints (Pre-Infusion, 1 h, 4 h, 24 h, 48 h, and 168 h) and processed to extract plasma. All plasma samples were gamma counted locally for analysis of pharmacokinetics.
# PK plasma samples were collected at pre-Infusion, 1 h, 4 h, 24 h, 48 h, and 168 h, and counted for radioactivity. Blood samples were first centrifuged to extract plasma, and then the radioactivity in plasma was counted in a gamma counter.
# Whole blood samples were collected as detailed in the protocol Schedule of Events i.e. pre-injection, and then at 1 h, 4 h, 24 h, 48 h, and 168 h post-injection. The samples were first centrifuged to separate plasma, and the radioactivity in the plasma was then measured using a gamma counter. Plasma concentrations were subsequently fitted with a bi-exponential function to derive outcome parameters such as the half-life and clearance rate of the radiopharmaceutical in the plasma.
# [1] = Cycle 1, plasma radioactivity, bi-exponential fit
# [2] = plasma, Cycle 1, excluding patient 42-030
# [3] = plasma, Cycle 1, individual patient values
# [4] = plasma, Cycle 1, individual patients
compound,measurement,setting,value
"O=C([O-])CC[C@H](NC(=O)N[C@@H](CCCCNC(=O)CCCCCCC(=O)NCCCC[C@@H](NC(=O)[C@@H](Cc1ccccc1)NC(=O)[C@@H](Cc1ccc(O)c(I)c1)NC(=O)CC[C@H](C(=O)[O-])N1CCN(CC(=O)[O-])CCN(CC(=O)[O-])CCN(CC(=O)[O-])CC1)C(=O)[O-])C(=O)[O-])C(=O)[O-].[177Lu+3].[H+].[H+].[H+].[H+].[H+] [^177Lu-PSMA I&T, (3S,7S,26R,29R,32R,37R)-29-benzyl-32-(4-hydroxy-3-iodobenzyl)-5,13,20,28,31,34-hexaoxo-37-(4,7,10-tris(carboxymethyl)-1,4,7,10-tetraazacyclododecan-1-yl)-4,6,12,21,27,30,33-heptaazaheptatriacontane-1,3,7,26,37-pentacarboxylic acid; lutetium-177 (III)]",plasma clearance,Cycle 1,13.06 ± 16.50 L/h
same,"plasma half-life, outlier value","Cycle 1, patient 42-030 (superscan)",113.96 h
same,time to peak plasma concentration,"Cycle 1, patient 80-007, first post-administration sample delayed",127 min
same,plasma mean distribution half-life,[1],1.89 ± 0.34 h
same,plasma mean elimination half-life,[1],14.7 ± 10.1 h and 14.70 ± 10.10 h
same,distribution volume,Cycle 1 plasma PK,moderate-to-high
same,AUC Total,"plasma, Cycle 1, Mean",22.77 fIA/L × min
same,Clearance Rate,"plasma, Cycle 1, Mean",13.06 L/h
same,Peak Concentration Value,"plasma, Cycle 1, Mean",0.04 fIA/L
same,Time of Peak Concentration,"plasma, Cycle 1, Mean",59.19 min
same,Vc,"plasma, Cycle 1, Mean",20.29 L
same,Vd,"plasma, Cycle 1, Mean",234.64 L
same,"AUC Total, Mean",[2],22.77 fIA/L x min
same,"AUC Total, max",[2],37.86 fIA/L x min
same,"AUC Total, median",[2],20.84 fIA/L x min
same,"AUC Total, min",[2],3.07 fIA/L x min
same,"Clearance Rate, Mean",[2],13.06 L/h
same,"Clearance Rate, max",[2],89.38 L/h
same,"Clearance Rate, median",[2],9.79 L/h
same,"Clearance Rate, min",[2],2.89 L/h
same,"Distribution Half-Life, Mean",[2],1.89 h
same,"Distribution Half-Life, max",[2],2.42 h
same,"Distribution Half-Life, median",[2],1.93 h
same,"Distribution Half-Life, min",[2],1.14 h
same,"Elimination Half-Life, Mean",[2],14.70 h
same,"Elimination Half-Life, max",[2],53.30 h
same,"Elimination Half-Life, median",[2],10.52 h
same,"Elimination Half-Life, min",[2],8.16 h
same,"Peak Concentration Value, Mean",[2],0.04 fIA/L
same,"Peak Concentration Value, max",[2],0.07 fIA/L
same,"Peak Concentration Value, median",[2],0.04 fIA/L
same,"Peak Concentration Value, min",[2],0.01 fIA/L
same,Time of Peak Concentration,[2],33.00 min
same,"Time of Peak Concentration, Mean",[2],59.19 min
same,"Time of Peak Concentration, max",[2],127.00 min
same,"Time of Peak Concentration, median",[2],59.00 min
same,"Vc, Mean",[2],20.29 L
same,"Vc, max",[2],111.78 L
same,"Vc, median",[2],16.33 L
same,"Vc, min",[2],9.92 L
same,"distribution volume (column headed ""Patient""), Mean",[2],234.64
same,"distribution volume (column headed ""Patient""), max",[2],1365.03
same,"distribution volume (column headed ""Patient""), median",[2],157.12
same,"distribution volume (column headed ""Patient""), min",[2],54.60
same,AUC Total,[3],30.05 fIA/L x min and 27.64 fIA/L x min and 20.58 fIA/L x min and 19.49 fIA/L x min and 3.07 fIA/L x min and 25.59 fIA/L x min and 25.58 fIA/L x min and 21.49 fIA/L x min and 26.70 fIA/L x min and 31.83 fIA/L x min and 15.14 fIA/L x min and 28.67 fIA/L x min and 17.09 fIA/L x min and 19.85 fIA/L x min and 34.96 fIA/L x min and 24.13 fIA/L x min and 13.46 fIA/L x min and 17.93 fIA/L x min and 18.79 fIA/L x min and 15.54 fIA/L x min and 19.50 fIA/L x min and 37.86 fIA/L x min and 21.09 fIA/L x min and 34.60 fIA/L x min and 33.81 fIA/L x min and 19.09 fIA/L x min and 15.16 fIA/L x min
same,Clearance Rate,[3],3.89 L/h and 4.21 L/h and 9.97 L/h and 17.94 L/h and 89.38 L/h and 6.26 L/h and 9.62 L/h and 7.63 L/h and 2.82 L/h and 4.73 L/h and 21.26 L/h and 2.89 L/h and 20.65 L/h and 8.08 L/h and 5.73 L/h and 7.92 L/h and 17.68 L/h and 10.55 L/h and 14.19 L/h and 17.10 L/h and 10.68 L/h and 3.95 L/h and 13.78 L/h and 3.66 L/h and 4.78 L/h and 12.34 L/h and 10.74 L/h
same,Distribution Half-Life,[3],1.14 h and 2.14 h and 1.88 h and 1.93 h and 1.69 h and 2.13 h and 2.19 h and 2.31 h and 1.81 h and 1.66 h and 1.78 h and 1.35 h and 1.77 h and 2.12 h and 1.92 h and 2.39 h and 1.30 h and 2.03 h and 2.42 h and 1.46 h and 2.05 h and 2.04 h and 2.22 h and 2.21 h and 1.67 h
same,Elimination Half-Life,[3],9.61 h and 24.34 h and 15.32 h and 9.32 h and 10.58 h and 10.59 h and 12.43 h and 10.02 h and 10.46 h and 113.96 h and 9.19 h and 12.50 h and 53.30 h and 10.35 h and 9.28 h and 8.16 h and 8.92 h and 35.48 h and 8.68 h and 11.79 h and 19.98 h and 11.28 h and 9.41 h and 23.96 h and 16.65 h
same,Vc,[3],21.87 L and 15.83 L and 16.82 L and 13.76 L and 111.78 L and 17.80 L and 11.45 L and 20.41 L and 38.22 L and 10.76 L and 18.90 L and 22.65 L and 15.26 L and 21.10 L and 9.92 L and 17.87 L and 22.51 L and 14.72 L and 16.91 L and 25.15 L and 17.72 L and 12.87 L and 15.24 L and 14.74 L and 11.55 L and 15.53 L and 14.35 L
same,"distribution volume (column headed ""Patient"")",[3],136.62 and 93.01 and 134.00 and 273.75 and 1365.03 and 112.27 and 139.07 and 115.14 and 463.99 and 62.71 and 383.51 and 222.08 and 308.54 and 108.16 and 67.50 and 118.24 and 227.51 and 540.13 and 177.78 and 291.02 and 307.91 and 64.25 and 187.12 and 54.60 and 165.33 and 296.49 and 148.91
same,Time of Peak Concentration,"plasma, Cycle 1, individual patient values, time of first post-administration sample",53.00 min and 60.00 min (6×) and 51.00 min (2×) and 58.00 min and 61.00 min (2×) and 50.00 min and 63.00 min and 57.00 min and 55.00 min and 52.00 min (2×) and 68.00 min and 71.00 min and 65.00 min and 33.00 min and 40.00 min and 69.00 min and 56.00 min and 127.00 min and 47.00 min
same,Peak Concentration Value,"plasma, Cycle 1, individual patient values, value of first post-administration sample",0.04 fIA/L (10×) and 0.03 fIA/L (4×) and 0.05 fIA/L (7×) and 0.01 fIA/L and 0.06 fIA/L (2×) and 0.02 fIA/L and 0.07 fIA/L (2×)
same,AUC Total,[4],19.09 fIA/L × min and 15.16 fIA/L × min and 30.05 fIA/L × min and 27.64 fIA/L × min and 20.58 fIA/L × min and 19.49 fIA/L × min and 3.07 fIA/L × min and 25.59 fIA/L × min and 25.58 fIA/L × min and 21.49 fIA/L × min and 26.70 fIA/L × min and 31.83 fIA/L × min and 15.14 fIA/L × min and 28.67 fIA/L × min and 17.09 fIA/L × min and 19.85 fIA/L × min and 34.96 fIA/L × min and 24.13 fIA/L × min and 13.46 fIA/L × min and 17.93 fIA/L × min and 18.79 fIA/L × min and 15.54 fIA/L × min and 19.50 fIA/L × min and 37.86 fIA/L × min and 21.09 fIA/L × min and 34.60 fIA/L × min and 33.81 fIA/L × min
same,Clearance Rate,[4],12.34 L/h and 10.74 L/h and 3.89 L/h and 4.21 L/h and 9.97 L/h and 17.94 L/h and 89.38 L/h and 6.26 L/h and 9.62 L/h and 7.63 L/h and 2.82 L/h and 4.73 L/h and 21.26 L/h and 2.89 L/h and 20.65 L/h and 8.08 L/h and 5.73 L/h and 7.92 L/h and 17.68 L/h and 10.55 L/h and 14.19 L/h and 17.10 L/h and 10.68 L/h and 3.95 L/h and 13.78 L/h and 3.66 L/h and 4.78 L/h
same,Peak Concentration Value,[4],0.05 fIA/L (7×) and 0.04 fIA/L (10×) and 0.03 fIA/L (4×) and 0.01 fIA/L and 0.06 fIA/L (2×) and 0.02 fIA/L and 0.07 fIA/L (2×)
same,Time of Peak Concentration,[4],47.00 min and 53.00 min and 60.00 min (6×) and 51.00 min (2×) and 58.00 min and 61.00 min (2×) and 50.00 min and 63.00 min and 57.00 min and 55.00 min and 52.00 min (2×) and 68.00 min and 71.00 min and 65.00 min and 33.00 min and 40.00 min and 69.00 min
same,Vc,[4],15.53 L and 14.35 L and 21.87 L and 15.83 L and 16.82 L and 13.76 L and 111.78 L and 17.80 L and 11.45 L and 20.41 L and 38.22 L and 10.76 L and 18.90 L and 22.65 L and 15.26 L and 21.10 L and 9.92 L and 17.87 L and 22.51 L and 14.72 L and 16.91 L and 25.15 L and 17.72 L and 12.87 L and 15.24 L and 14.74 L and 11.55 L
same,Vd,[4],296.49 L and 148.91 L and 136.62 L and 93.01 L and 134.00 L and 273.75 L and 1365.03 L and 112.27 L and 139.07 L and 115.14 L and 463.99 L and 62.71 L and 383.51 L and 222.08 L and 308.54 L and 108.16 L and 67.50 L and 118.24 L and 227.51 L and 540.13 L and 177.78 L and 291.02 L and 307.91 L and 64.25 L and 187.12 L and 54.60 L and 165.33 L
same,AUC Total,"plasma, Cycle 1, max",37.86 fIA/L × min
same,Clearance Rate,"plasma, Cycle 1, max",89.38 L/h
same,Peak Concentration Value,"plasma, Cycle 1, max",0.07 fIA/L
same,Time of Peak Concentration,"plasma, Cycle 1, max",127.00 min
same,Vc,"plasma, Cycle 1, max",111.78 L
same,Vd,"plasma, Cycle 1, max",1365.03 L
same,AUC Total,"plasma, Cycle 1, median",20.84 fIA/L × min
same,Clearance Rate,"plasma, Cycle 1, median",9.79 L/h
same,Peak Concentration Value,"plasma, Cycle 1, median",0.04 fIA/L
same,Vc,"plasma, Cycle 1, median",16.33 L
same,Vd,"plasma, Cycle 1, median",157.12 L
